Data on 19 compounds can be found in patent EP0705258B1, “AZOLYL-CYCLIC AMINE DERIVATIVES WITH IMMUNOMODULATORY ACTIVITY” (Knoll AG, priority 1993, dated 1995).

Structures are written as SMILES.

The test system of this experiment is Zymosan Stimulated Macrophages. Kind of experiment: Inhibition of Arachidonic Acid Release from Zymosan Stimulated Macrophages (Test D). It is filed as cell-based, MF1 mice. Particulars: Mus musculus, Macrophage, tested at 100, 50, 20, 10, 5 and 1 µM. The procedure:
Female MF1 mice (weighing 20 to 25 g) were killed using a rising concentration of CO2. The mice were laid on their backs and the abdomens wiped with 70% alcohol. The skin was pulled back, exposing the peritoneal wall. Medium A (5 ml) (see below) was injected into the peritoneal cavity of each mouse followed by approximately 1 ml of air using a 20 ml syringe and a 21G x 40 mm needle in order to form a suspension of macrophage cells. The medium and cells were then removed using a 19G x 40 mm needle. The resulting suspension was returned to a sterile beaker kept on ice. The extracts from all the mice were pooled and this pooled cell suspension was counted using a Coulter counter and adjusted to a final cell count of 1 - 1.3 x 10^6 cells/ml prior to labelling with [^3H]-arachidonic acid. Typically five mice provided sufficient cells for each multiwell plate. Sufficient [^3H]arachidonic acid in ethanol to give a final concentration of 1.6 µCi/ml (equivalent to 40 µCi/plate) was blown to dryness under nitrogen. The arachidonic acid was then resuspended in 1 or 2 ml of the cell suspension which was then mixed with the remainder of the cell suspension in a centrifuge bottle. The labelled cell suspension was then plated out into sterile plastic 96 flat-bottomed well plates (250 µl per well) and incubated overnight at 37°C in a moist atmosphere of 5% CO2, 95% air. The following day, non-adherent cells were removed by washing 3 times with sterile phosphate buffered saline (PBS). The adherent peritoneal macrophages were then cultured for a further 24 hours in the presence or absence of drugs, in medium B (see below) at 37° in a 5% CO2 atmosphere in order to measure the effects of drugs on the spontaneous release of arachidonic acid in the absence of stimulus. After this incubation, supernatants were removed to give media 1 and stored in sealed multi-well plates at 4°C prior to scintillation counting. Drugs which potentiated spontaneous release of arachidonic acid (125% of controls) were deemed to be toxic at the concentration at which this phenomenon occurred. The supernatants were replaced by fresh medium C containing fresh drug and a stimulus. Three drugs were tested at six concentrations (100, 50, 20, 10, 5 and 1 µM) in replicates of four on each plate. The other wells contained controls consisting of a positive control (e.g. dexamethasone), medium (B) only and medium C only. Incubation was then continued for a further 5 hours, whereupon the supernatants were collected to give media 2 and the adherent cells washed with PBS. The cells were then lysed with 100 µl of 0.1% TRITON® X100 in a 0.1% solution of bovine serum albumin in 0.9% saline and mechanically disrupted to give cell lysates. These supernatants (media 2) and cell lysates (Cells) were also stored in sealed multi-well plates at 4°C prior to scintillation counting. 200 µl aliquots of media, or 100 µl aliquots of cells were counted using 2 ml of OPTIPHASE "HIGH SAFE" (Trademark of LKB) as scintillant. […] The value for the arachidonic acid release in the absence of stimulus (spontaneous, cpm of media 2) from cells which had been exposed to neither stimulus nor drug was subtracted from all equivalent values (cpm media 2, stimulated with or without drug) to give the net stimulated release. The percentage inhibition of arachidonic acid release caused by a drug may then be calculated using the following equation. % Inhibition = 100 -(net stimulated release in presence of drug x 100)/(net stimulated release in absence of drug) [formula] […] The zymosan stimulant was prepared as follows:- zymosan (200mg) (supplied by Sigma) was added to PBS (20ml). The mixture was boiled for 30 minutes and the volume restored to 20ml with water. The zymosan was harvested by centrifugation at 500Xg for 5 minutes, washed twice by resuspension in PBS (10ml) and centrifugation. After the final separation, the zymosan was resuspended in 20ml PBS and stored as lml aliquots at -20°C. […]
Turning to `c1ccc(OCCN2CCC(CCn3ccnc3)CC2)cc1` [Example 87, 4-[2-(Imidazol-1-yl)ethyl]-1-(2-phenoxyethyl)piperidine], the IC50 (in general, the concentration needed to halve the response being measured) is 18 µM.
On to `Cc1nc2ccccc2n1CCC1CCN(CCCc2ccccc2)CC1` [Example 112, 2-Methyl-1-{2-[1-(3-phenylpropyl)piperidin-4-yl]ethyl}benzimidazole], for which the IC50 came to 16 µM.
For the compound `CC(c1ccc(Cl)cc1)N1CCC(CCn2ccnc2)CC1` (stereo not shown) [Example 93, 1-[1-(4-chlorophenyl)ethyl]-4-[2-(imidazol-1-yl)-ethyl]piperidine], the IC50 was 56 µM.
In the case of `Cc1ncn(CCC2CCN(CCCc3ccccc3)CC2)c1C` [Example 116, 4-[2-(4,5-Dimethylimidazol-1-yl)ethyl]-1-(3-phenylpropyl)piperidine] it was 18 µM; in that of `c1ccc(CCN2CCC(CCn3ccnc3)CC2)cc1` [Example 128, 4-[2-(Imidazol-1-yl)ethyl]-1-phenethylpiperidine], 27 µM; in that of `c1ccc(CCCCN2CCC(CCn3ccnc3)CC2)cc1` [Example 129, 4-[2-(Imidazol-1-yl)ethyl]-1-(4-phenylbutyl)piperidine], 16 µM.
As for `c1ccc(CCCN2CCC(Cn3ccnc3)CC2)cc1` [Example 102, 4-Imidazol-1-ylmethyl-1-(3-phenylpropyl)piperidine], the IC50 was found to be 54 µM.
In the case of `CSc1ccc(CCCN2CCC(CCn3ccnc3)CC2)cc1` [Example 127, 4-[2-(Imidazol-1-yl)ethyl]-1-[3-(4-methylthiophenyl)propyl]piperidine], the IC50 stood at 16 µM.
Consider `Cc1nccn1CCC1CCN(CCCc2ccccc2)CC1` [Example 117, 4-[2-(2-Methylimidazol-1-yl)ethyl]-1-(3-phenylpropyl)piperidine], for which the IC50 is 21 µM.
In the case of `Cl.Cl.c1ccc(CCCN2CCC(CCn3ccnc3)CC2)cc1` [Example 98, 4-[2-(imidazol-1-yl)ethyl]-1-(3-phenylpropyl)piperidine dihydrochloride] it was 62 µM; in that of `CC(Cn1ccnc1)C1CCN(CCCc2ccccc2)CC1` (stereo not shown) [Example 113, 4-[2-(Imidazol-1-yl)-1-methylethyl]-1-(3-phenylpropyl)piperidine], 33 µM.
For `C(=Cc1ccccc1)CN1CCC(CCn2ccnc2)CC1` [Example 90, 1-Cinnamyl-4-[2-(imidazol-1-yl)ethyl]-piperidine], the IC50 turned out to be 31 µM.
Take `c1ccc(CCCN2CCC(CCn3cnc4ccccc43)CC2)cc1` [Example 114, 1-{2-[1-(3-Phenylpropyl)piperidin-4-yl]-ethyl}benzimidazole]: the IC50 worked out at 34 µM.
The result for `O=C(CN1CCC(CCn2ccnc2)CC1)Nc1ccc(C(F)(F)F)cc1` [Example 91, 4-[2-(Imidazol-1-yl)ethyl]piperidino-4'-trifluoromethylacetanilide] reads 17 µM; that for `Cc1nc(Cl)c(Cl)n1CCC1CCN(CCCc2ccccc2)CC1` [Example 115, 4-[2-(4,5-Dichloro-2-methylimidazol-1-yl)ethyl]-1-(3-phenylpropyl)piperidine], 31 µM; that for `c1ccc(CCCN2CCC(CCn3ccnc3-c3ccccc3)CC2)cc1` [Example 109, 4-[2-(2-Phenylimidazol-1-yl)ethyl]-1-(3-phenylpropyl)piperidine], 14 µM.
Consider `Cc1ccc(CCCN2CCC(CCn3ccnc3)CC2)cc1` [Example 122, 4-[2-(Imidazol-1-yl)ethyl]-1-[3-(4-methylphenyl)propyl]piperidine], for which the IC50 was found to be 52 µM.
As to `Clc1ccc(CCCN2CCC(CCn3ccnc3)CC2)cc1` [Example 123, 1-[3-(4-Chlorophenyl)propyl]-4-[2-(imidazol-1-yl)ethyl]piperidine], the IC50 was 35 µM.
As for `CC1CN(CCCc2ccccc2)CCC1CCn1ccnc1` (stereo not shown) [Example 103, 4-[2-(Imidazol-1-yl)ethyl]-3-methyl-1-(3-phenylpropyl)piperidine], the half-inhibitory concentration (IC50) was 28 µM.
